From patent US20050288213A1, “Combination therapy for the treatment of obesity” (priority 2002, published 2005)
Entries after “also recorded” stand apart in the source; their conditions may differ.

Columns and labels:
[1] = system: diet induced obese (DIO) mice; assay: In vivo pair-feeding study with a NPY5 antagonist; design: species or system Male C57BL/6J mice
Protocol: Compound A, is an orally active, selective NPY5 antagonist (Kanatani et al., 2000, Biochem. Biophys. Research Comm. 272:169-173). Male C57BL/6J mice (CLEA Japan Inc., 16 months old at the beginning of the drug administration) were used. Mice were given water and regular pellet chow (CE-2, CLEA Japan Inc.) ad libitum. They were kept in an animal room which was maintained at 23±2° C. temperature, 55±15% relative humidity and on a 12-hr light-dark cycle (7:00-19:00) during a quarantine and acclimatization period of 1 week.
Before the start of drug administration, mice were fed a MB diet (Oriental BioService Co., Tokyo, Japan) for about 9 to 10 months until the body weight gain reached plateau. After the body weight gain reached a plateau, the diet was change to a powder MHF diet. The powder MEW diet was given by powder feeder (small dishes). Diet and dishes were changed everyday, and daily food intake was measured. During this period, animals were orally administered vehicle (0.5% methylcellulose in distilled water) by gavage once-daily. After stable feeding was observed, the amount of new food was adjusted to daily food intake+0.3 g, to minimize the amount of spilled food. After the acclimation period, the MB diet-fed mice were divided into three groups to match average values of body weight (initial average body weight was 48 to 49 g). Each group was orally administered either vehicle or compound A at a dose of 100 mg/kg once-daily for 1 month, or vehicle by gavage. Food and body weight were measured. The administration was done one and half hours before the beginning of the dark period following the body weight measurement. Four days after drug administration, the pair-feeding was started. The pair-fed amount of food was calculated from the following equations: Average F.I. inhibition of drug treated group (%)=(average F.I. from control group−average F.I. from drug treated group)/average F.I. from control group×100 Pair fed amount of food for each animal=each animal's average F.I. from pre period×(1−average F.I. inhibition of drug treated group (%)) Pair fed mice were given a diet calculated from above inhibition and pre-average F.I. value. The amount of food was divided to two meals and given around at 8:00 and 18:00 to avoid a long duration of fasting. Rectal temperature was measured at 13:00-14:00 by insertion of thermo-probe in the rectum, at the 14, 22, 29, 34th day (10, 18, 25, 30th day for pair-fed group) after the start of treatment. Results

[2] = system: diet induced obese (DIO) mice; assay: In vivo study of a combination of a NPY5 antagonist and food restriction; design: species or system Male C57BL/6J mice
Protocol: Male C57BL/6J mice (CLEA Japan Inc., 14 months old at the beginning of the drug administration) were used. Mice were given water and a regular pellet chow (CE-2, CLEA Japan Inc.) ad libitum. They were kept in an animal room which was maintained at 23±2° C. temperature, 55±15% relative humidity and on a 12-hr light-dark cycle (7:00-19:00) during a quarantine and acclimatization period of 1 week. Before the start of drug administration, mice were fed a MHF diet (Oriental BioService Co., Tokyo, Japan) for about 9 to 10 months until the body weight gain reached a plateau. After the body weight gain reached a plateau, the diet was changed to a powder MHF diet. The powder MHF diet was given by powder feeder (small dishes). Diet and dishes were changed everyday, and the daily food intake was measured. During this period, animals were orally administered vehicle (0.5% methylcellulose in distilled water) by gavage twice-daily. After stable feeding was observed, the amount of new food was adjusted to daily food intake+0.3 g, to minimize the amount of spilled food. After the acclimation period, the […] mice were divided into four groups to match the average values of body weight (initial average body weight was 49 to 51 g) and food intake (n=7-10). Two of the groups were orally administered either vehicle or compound B at a dose of 30 mg/kg twice-daily for 1.5 months by gavage, respectively. Another two groups were treated with vehicle or compound B and given 90% of the average baseline food intake of the each mouse during the acclimation period (10% food restriction). The administration was done one and half hours before the beginning of the dark period following body weight measurement and one and half hours after the beginning of the light period. The amount of food was divided into two meals and given around at 8:00 and 18:00 to avoid a long duration of fasting. Food and body weight were measured.

## CC1(C)CC(=O)C(C2C3=C(CC(C)(C)CC3=O)Oc3ccccc32)C(=O)C1 (stereo not drawn) [Compound A]
[1]; DIO mice chronically treated
  food consumed, less than untreated controls: about 10%
[1]; DIO mice, 100 mg/kg once-daily P.O., 30 day treatment
  body weight: significantly reduced body weight
[1]; DIO mice, 100 mg/kg once-daily P.O., throughout the treatment period
  food intake: mildly reduced food intake
[1]; DIO mice, 100 mg/kg once-daily P.O., compared with control and pair-fed group, 100 mg/kg
  rectal temperature: almost the same as that in the control group; also recorded: drop in body temperature was prevented
[1]; Mus musculus, po, DIO mice, 100 mg/kg once-daily P.O., 1 month, read-out: Inhibitory percentage of cumulative food intake
  inhibition at 100 mg/kg: 12.5%

## O=C1OC2(CCN(C(=O)Nc3cnc(-c4ccccc4)cn3)CC2)c2ccccc21 [Compound B, 3-oxo-N-(5-phenyl-2-pyrazinyl)-spiro[isobenzofuran-1(3H),4′-piperidine]-1′-carboxamide]
[2]; 30 mg/kg twice-daily P.O. plus 10% food restriction, compared with either treatment alone, 30 mg/kg
  body weight, combination with 10% food restriction: decreased weight than either treatment alone; also recorded: lose more weight than food restriction alone
[2]; 30 mg/kg twice-daily P.O., throughout the treatment period
  food intake: mildly reduced food intake
[2]; Mus musculus, po, 30 mg/kg twice-daily P.O., 1.5 months, read-out: Inhibitory percentage of cumulative food intake
  inhibition at 30 mg/kg: 6%
[2]; non food restricted, 30 mg/kg twice-daily P.O., 49 day treatment
  body weight: significantly reduced body weight
